The source made the active and inactive calls. For most assays here, no stated cut-off is given here; in the data, actives have a measured Kd and inactives only a lower limit.
The compounds below were run against T1, Receptor-type tyrosine-protein kinase FLT3 (Homo sapiens, UniProt P36888).
T1 sequence (P36888 whole entry): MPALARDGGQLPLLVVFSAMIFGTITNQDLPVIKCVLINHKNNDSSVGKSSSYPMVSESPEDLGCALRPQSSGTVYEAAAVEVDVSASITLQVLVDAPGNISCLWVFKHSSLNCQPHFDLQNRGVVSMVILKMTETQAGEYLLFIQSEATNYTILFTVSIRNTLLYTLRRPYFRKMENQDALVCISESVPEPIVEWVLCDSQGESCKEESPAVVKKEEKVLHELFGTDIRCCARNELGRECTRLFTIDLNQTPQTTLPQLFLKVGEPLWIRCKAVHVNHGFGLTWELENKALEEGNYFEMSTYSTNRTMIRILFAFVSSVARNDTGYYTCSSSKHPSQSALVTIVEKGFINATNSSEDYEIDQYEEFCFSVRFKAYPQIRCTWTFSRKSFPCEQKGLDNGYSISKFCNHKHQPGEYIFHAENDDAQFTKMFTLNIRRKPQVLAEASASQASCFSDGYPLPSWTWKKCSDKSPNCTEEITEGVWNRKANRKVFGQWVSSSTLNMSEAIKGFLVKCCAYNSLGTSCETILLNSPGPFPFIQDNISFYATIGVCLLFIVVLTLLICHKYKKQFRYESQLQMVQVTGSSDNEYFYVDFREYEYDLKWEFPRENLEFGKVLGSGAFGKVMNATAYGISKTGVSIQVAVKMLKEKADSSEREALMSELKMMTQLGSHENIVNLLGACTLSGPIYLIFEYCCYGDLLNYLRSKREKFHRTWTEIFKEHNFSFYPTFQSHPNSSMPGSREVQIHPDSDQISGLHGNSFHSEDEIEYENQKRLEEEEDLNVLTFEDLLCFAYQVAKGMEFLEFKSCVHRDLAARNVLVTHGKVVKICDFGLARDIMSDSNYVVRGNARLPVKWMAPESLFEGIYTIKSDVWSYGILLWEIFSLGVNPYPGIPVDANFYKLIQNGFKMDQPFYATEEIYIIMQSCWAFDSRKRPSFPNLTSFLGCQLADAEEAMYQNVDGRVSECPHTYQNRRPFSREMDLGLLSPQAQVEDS

| SMILES | Kd |
| --- | --- |
| O=c1sn(-c2cccc3ccccc23)c(=O)n1Cc1ccccc1 [TIDEGLUSIB] | > 30 µM (inactive) |
| CC(=O)Nc1cccc(-n2c(=O)n(C3CC3)c(=O)c3c(Nc4ccc(I)cc4F)n(C)c(=O)c(C)c32)c1 [TRAMETINIB] | > 30 µM (inactive) |
| CN1N=C(N)c2cn([C@@H]3O[C@H](COP(=O)(O)O)[C@@H](O)[C@H]3O)c3ncnc1c23 [TRICIRIBINE PHOSPHATE] | > 30 µM (inactive) |
| CC(C)Nc1cc(-c2c[nH]c(C(=O)N[C@H](CO)c3cccc(Cl)c3)c2)c(Cl)cn1 [ULIXERTINIB] | > 30 µM (inactive) |
| CCCS(=O)(=O)Nc1ccc(F)c(C(=O)c2c[nH]c3ncc(-c4ccc(Cl)cc4)cc23)c1F [VEMURAFENIB] | > 30 µM (inactive) |

Each compound was assayed against Mitogen-activated protein kinase kinase kinase kinase 1 (Homo sapiens, UniProt Q92918).
Chain of Mitogen-activated protein kinase kinase kinase kinase 1 (Q92918 whole entry): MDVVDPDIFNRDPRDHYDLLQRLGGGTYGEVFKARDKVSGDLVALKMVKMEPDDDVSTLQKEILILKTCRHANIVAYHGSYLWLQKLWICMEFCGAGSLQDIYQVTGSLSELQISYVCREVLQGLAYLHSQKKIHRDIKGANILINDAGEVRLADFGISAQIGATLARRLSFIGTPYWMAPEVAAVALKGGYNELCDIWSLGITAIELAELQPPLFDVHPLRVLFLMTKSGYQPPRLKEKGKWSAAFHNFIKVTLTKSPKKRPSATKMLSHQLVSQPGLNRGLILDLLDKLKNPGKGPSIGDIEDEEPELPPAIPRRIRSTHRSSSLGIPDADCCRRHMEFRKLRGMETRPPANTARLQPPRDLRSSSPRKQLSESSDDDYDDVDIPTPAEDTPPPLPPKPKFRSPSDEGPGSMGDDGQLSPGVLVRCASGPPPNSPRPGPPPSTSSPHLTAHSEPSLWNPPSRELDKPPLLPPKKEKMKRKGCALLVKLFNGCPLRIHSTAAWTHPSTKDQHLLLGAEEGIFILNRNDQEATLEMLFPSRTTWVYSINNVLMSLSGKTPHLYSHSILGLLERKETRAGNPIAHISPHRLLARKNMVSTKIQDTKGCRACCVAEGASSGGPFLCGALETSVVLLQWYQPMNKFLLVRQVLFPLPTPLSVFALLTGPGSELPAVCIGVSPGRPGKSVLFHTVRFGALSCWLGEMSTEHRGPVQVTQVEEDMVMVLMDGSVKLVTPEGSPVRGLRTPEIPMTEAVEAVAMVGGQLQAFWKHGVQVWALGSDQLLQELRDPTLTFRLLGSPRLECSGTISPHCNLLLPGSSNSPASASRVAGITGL

| SMILES | Kd |
| --- | --- |
| O=c1sn(-c2cccc3ccccc23)c(=O)n1Cc1ccccc1 [TIDEGLUSIB] | > 30 µM (inactive) |
| CC(=O)Nc1cccc(-n2c(=O)n(C3CC3)c(=O)c3c(Nc4ccc(I)cc4F)n(C)c(=O)c(C)c32)c1 [TRAMETINIB] | > 30 µM (inactive) |
| CN1N=C(N)c2cn([C@@H]3O[C@H](COP(=O)(O)O)[C@@H](O)[C@H]3O)c3ncnc1c23 [TRICIRIBINE PHOSPHATE] | > 30 µM (inactive) |
| CC(C)Nc1cc(-c2c[nH]c(C(=O)N[C@H](CO)c3cccc(Cl)c3)c2)c(Cl)cn1 [ULIXERTINIB] | > 30 µM (inactive) |
| CCCS(=O)(=O)Nc1ccc(F)c(C(=O)c2c[nH]c3ncc(-c4ccc(Cl)cc4)cc23)c1F [VEMURAFENIB] | > 30 µM (inactive) |

What follows are compounds tested against T2, Mitogen-activated protein kinase kinase kinase kinase 3 (Homo sapiens, UniProt Q8IVH8).
T2 sequence (Q8IVH8 whole entry): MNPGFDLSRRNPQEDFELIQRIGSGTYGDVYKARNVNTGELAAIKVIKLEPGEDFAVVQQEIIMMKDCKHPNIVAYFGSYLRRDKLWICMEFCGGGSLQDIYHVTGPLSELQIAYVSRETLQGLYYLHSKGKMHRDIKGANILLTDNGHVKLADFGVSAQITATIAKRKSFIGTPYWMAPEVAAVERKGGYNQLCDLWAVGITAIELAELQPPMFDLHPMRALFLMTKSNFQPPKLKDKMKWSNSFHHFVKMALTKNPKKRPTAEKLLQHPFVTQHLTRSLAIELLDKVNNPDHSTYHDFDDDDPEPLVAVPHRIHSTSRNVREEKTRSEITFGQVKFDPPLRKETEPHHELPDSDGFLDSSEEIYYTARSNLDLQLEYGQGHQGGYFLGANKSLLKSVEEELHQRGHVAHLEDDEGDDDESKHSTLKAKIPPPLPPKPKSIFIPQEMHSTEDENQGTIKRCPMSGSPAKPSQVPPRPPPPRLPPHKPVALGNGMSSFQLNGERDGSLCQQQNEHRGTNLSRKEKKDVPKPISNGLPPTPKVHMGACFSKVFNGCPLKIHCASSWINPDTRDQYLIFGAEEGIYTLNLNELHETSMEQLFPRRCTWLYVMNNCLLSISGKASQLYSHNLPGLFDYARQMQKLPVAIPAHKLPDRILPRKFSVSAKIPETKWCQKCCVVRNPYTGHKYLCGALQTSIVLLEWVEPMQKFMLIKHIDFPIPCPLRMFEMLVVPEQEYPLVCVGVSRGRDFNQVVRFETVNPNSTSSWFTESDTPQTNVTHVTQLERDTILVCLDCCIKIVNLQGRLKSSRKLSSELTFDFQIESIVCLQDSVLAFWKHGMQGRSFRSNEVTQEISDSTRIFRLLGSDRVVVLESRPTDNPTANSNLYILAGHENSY

| SMILES | Kd |
| --- | --- |
| O=c1sn(-c2cccc3ccccc23)c(=O)n1Cc1ccccc1 [TIDEGLUSIB] | > 30 µM (inactive) |
| CC(=O)Nc1cccc(-n2c(=O)n(C3CC3)c(=O)c3c(Nc4ccc(I)cc4F)n(C)c(=O)c(C)c32)c1 [TRAMETINIB] | > 30 µM (inactive) |
| CN1N=C(N)c2cn([C@@H]3O[C@H](COP(=O)(O)O)[C@@H](O)[C@H]3O)c3ncnc1c23 [TRICIRIBINE PHOSPHATE] | > 30 µM (inactive) |
| CC(C)Nc1cc(-c2c[nH]c(C(=O)N[C@H](CO)c3cccc(Cl)c3)c2)c(Cl)cn1 [ULIXERTINIB] | > 30 µM (inactive) |
| CCCS(=O)(=O)Nc1ccc(F)c(C(=O)c2c[nH]c3ncc(-c4ccc(Cl)cc4)cc23)c1F [VEMURAFENIB] | > 30 µM (inactive) |

The compounds below were run against Maternal embryonic leucine zipper kinase (Homo sapiens, UniProt Q14680).
Chain of Maternal embryonic leucine zipper kinase (Q14680 whole entry): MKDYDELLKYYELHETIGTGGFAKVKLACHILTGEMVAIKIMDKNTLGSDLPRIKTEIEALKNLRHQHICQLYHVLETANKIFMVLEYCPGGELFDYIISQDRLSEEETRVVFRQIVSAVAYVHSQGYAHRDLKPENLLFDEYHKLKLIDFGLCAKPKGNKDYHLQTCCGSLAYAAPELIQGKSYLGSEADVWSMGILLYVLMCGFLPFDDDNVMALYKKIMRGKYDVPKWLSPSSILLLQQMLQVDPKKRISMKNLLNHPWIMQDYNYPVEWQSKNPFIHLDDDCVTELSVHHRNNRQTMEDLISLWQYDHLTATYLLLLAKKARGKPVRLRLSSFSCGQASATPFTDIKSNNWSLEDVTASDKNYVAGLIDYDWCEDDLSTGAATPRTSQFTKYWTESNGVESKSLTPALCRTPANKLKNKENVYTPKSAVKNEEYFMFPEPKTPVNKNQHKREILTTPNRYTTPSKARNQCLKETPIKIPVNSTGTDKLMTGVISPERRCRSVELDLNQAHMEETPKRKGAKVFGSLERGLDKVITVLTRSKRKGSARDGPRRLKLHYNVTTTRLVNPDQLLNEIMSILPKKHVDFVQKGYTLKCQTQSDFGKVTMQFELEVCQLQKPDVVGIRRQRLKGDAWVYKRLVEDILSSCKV

| SMILES | Kd |
| --- | --- |
| O=c1sn(-c2cccc3ccccc23)c(=O)n1Cc1ccccc1 [TIDEGLUSIB] | > 30 µM (inactive) |
| CC(=O)Nc1cccc(-n2c(=O)n(C3CC3)c(=O)c3c(Nc4ccc(I)cc4F)n(C)c(=O)c(C)c32)c1 [TRAMETINIB] | > 30 µM (inactive) |
| CN1N=C(N)c2cn([C@@H]3O[C@H](COP(=O)(O)O)[C@@H](O)[C@H]3O)c3ncnc1c23 [TRICIRIBINE PHOSPHATE] | > 30 µM (inactive) |
| CC(C)Nc1cc(-c2c[nH]c(C(=O)N[C@H](CO)c3cccc(Cl)c3)c2)c(Cl)cn1 [ULIXERTINIB] | > 30 µM (inactive) |
| CCCS(=O)(=O)Nc1ccc(F)c(C(=O)c2c[nH]c3ncc(-c4ccc(Cl)cc4)cc23)c1F [VEMURAFENIB] | > 30 µM (inactive) |

These compounds were tested against T3, Serine/threonine-protein kinase Nek9 (Homo sapiens, UniProt Q8TD19).
T3 sequence (Q8TD19 whole entry): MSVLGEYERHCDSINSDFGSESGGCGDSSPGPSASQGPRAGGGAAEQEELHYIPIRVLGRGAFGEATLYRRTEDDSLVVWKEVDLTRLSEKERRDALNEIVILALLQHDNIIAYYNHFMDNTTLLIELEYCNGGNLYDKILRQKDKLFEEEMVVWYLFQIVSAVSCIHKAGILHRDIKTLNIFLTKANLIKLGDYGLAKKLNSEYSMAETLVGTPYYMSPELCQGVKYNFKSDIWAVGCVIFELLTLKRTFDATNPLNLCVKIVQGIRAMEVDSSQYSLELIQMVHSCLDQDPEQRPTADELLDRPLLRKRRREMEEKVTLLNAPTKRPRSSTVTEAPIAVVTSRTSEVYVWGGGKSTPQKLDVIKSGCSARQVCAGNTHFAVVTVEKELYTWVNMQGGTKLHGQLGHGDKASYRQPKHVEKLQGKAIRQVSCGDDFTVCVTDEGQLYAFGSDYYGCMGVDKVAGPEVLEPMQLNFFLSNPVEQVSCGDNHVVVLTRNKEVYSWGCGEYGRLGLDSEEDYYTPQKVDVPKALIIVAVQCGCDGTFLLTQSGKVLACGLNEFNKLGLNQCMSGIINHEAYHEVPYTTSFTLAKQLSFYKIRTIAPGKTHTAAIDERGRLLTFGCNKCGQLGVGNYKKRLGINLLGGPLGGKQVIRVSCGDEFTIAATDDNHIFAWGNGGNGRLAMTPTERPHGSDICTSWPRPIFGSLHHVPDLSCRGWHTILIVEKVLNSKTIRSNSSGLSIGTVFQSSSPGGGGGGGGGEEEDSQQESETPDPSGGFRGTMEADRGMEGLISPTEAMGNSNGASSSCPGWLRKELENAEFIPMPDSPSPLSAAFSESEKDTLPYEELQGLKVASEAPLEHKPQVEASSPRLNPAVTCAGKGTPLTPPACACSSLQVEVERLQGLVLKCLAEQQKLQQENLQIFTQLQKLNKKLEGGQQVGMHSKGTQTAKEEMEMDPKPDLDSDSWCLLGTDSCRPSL

| SMILES | Kd |
| --- | --- |
| O=c1sn(-c2cccc3ccccc23)c(=O)n1Cc1ccccc1 [TIDEGLUSIB] | > 30 µM (inactive) |
| CC(=O)Nc1cccc(-n2c(=O)n(C3CC3)c(=O)c3c(Nc4ccc(I)cc4F)n(C)c(=O)c(C)c32)c1 [TRAMETINIB] | > 30 µM (inactive) |
| CN1N=C(N)c2cn([C@@H]3O[C@H](COP(=O)(O)O)[C@@H](O)[C@H]3O)c3ncnc1c23 [TRICIRIBINE PHOSPHATE] | > 30 µM (inactive) |
| CC(C)Nc1cc(-c2c[nH]c(C(=O)N[C@H](CO)c3cccc(Cl)c3)c2)c(Cl)cn1 [ULIXERTINIB] | > 30 µM (inactive) |
| CCCS(=O)(=O)Nc1ccc(F)c(C(=O)c2c[nH]c3ncc(-c4ccc(Cl)cc4)cc23)c1F [VEMURAFENIB] | > 30 µM (inactive) |

These compounds were tested against Structural maintenance of chromosomes protein 2 (Homo sapiens, UniProt O95347).
Chain of Structural maintenance of chromosomes protein 2 (O95347 whole entry): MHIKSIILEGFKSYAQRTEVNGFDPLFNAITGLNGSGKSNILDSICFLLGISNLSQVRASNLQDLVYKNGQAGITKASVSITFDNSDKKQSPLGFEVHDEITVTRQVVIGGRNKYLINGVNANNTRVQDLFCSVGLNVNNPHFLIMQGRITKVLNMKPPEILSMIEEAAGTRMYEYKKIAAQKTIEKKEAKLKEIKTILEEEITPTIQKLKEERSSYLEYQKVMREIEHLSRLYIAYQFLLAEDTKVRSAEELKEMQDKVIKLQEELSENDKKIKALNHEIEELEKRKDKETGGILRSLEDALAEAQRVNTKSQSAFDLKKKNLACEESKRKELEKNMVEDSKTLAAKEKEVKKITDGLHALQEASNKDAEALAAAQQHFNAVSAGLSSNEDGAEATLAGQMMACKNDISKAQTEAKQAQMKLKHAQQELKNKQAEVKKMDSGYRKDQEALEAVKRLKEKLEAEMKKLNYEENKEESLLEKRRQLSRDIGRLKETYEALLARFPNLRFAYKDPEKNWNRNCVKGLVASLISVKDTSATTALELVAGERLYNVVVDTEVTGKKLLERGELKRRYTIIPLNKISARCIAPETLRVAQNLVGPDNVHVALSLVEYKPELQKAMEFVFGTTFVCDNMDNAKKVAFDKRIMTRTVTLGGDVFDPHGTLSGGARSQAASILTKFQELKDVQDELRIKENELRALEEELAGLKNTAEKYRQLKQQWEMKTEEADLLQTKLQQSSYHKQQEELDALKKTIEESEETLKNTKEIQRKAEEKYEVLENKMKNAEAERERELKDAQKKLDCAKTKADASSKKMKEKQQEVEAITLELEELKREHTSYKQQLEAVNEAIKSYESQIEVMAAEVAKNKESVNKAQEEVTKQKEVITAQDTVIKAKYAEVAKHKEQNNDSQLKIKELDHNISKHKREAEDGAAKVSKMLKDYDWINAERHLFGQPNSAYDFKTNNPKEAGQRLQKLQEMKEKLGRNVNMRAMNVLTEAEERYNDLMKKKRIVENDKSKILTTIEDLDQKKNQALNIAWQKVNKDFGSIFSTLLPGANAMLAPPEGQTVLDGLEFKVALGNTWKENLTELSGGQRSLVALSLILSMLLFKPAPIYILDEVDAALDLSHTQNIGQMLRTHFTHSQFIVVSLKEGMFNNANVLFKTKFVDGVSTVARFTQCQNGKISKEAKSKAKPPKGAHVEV

| SMILES | Kd |
| --- | --- |
| O=c1sn(-c2cccc3ccccc23)c(=O)n1Cc1ccccc1 [TIDEGLUSIB] | > 30 µM (inactive) |
| CC(=O)Nc1cccc(-n2c(=O)n(C3CC3)c(=O)c3c(Nc4ccc(I)cc4F)n(C)c(=O)c(C)c32)c1 [TRAMETINIB] | > 30 µM (inactive) |
| CN1N=C(N)c2cn([C@@H]3O[C@H](COP(=O)(O)O)[C@@H](O)[C@H]3O)c3ncnc1c23 [TRICIRIBINE PHOSPHATE] | > 30 µM (inactive) |
| CC(C)Nc1cc(-c2c[nH]c(C(=O)N[C@H](CO)c3cccc(Cl)c3)c2)c(Cl)cn1 [ULIXERTINIB] | > 30 µM (inactive) |
| CCCS(=O)(=O)Nc1ccc(F)c(C(=O)c2c[nH]c3ncc(-c4ccc(Cl)cc4)cc23)c1F [VEMURAFENIB] | > 30 µM (inactive) |

From ChEMBL document CHEMBL3991601, “The target landscape of clinical kinase drugs” (Science, 2017)
